The record followed here is patent publication US4024139A, “2,3,4,4A-Tetrahydro-10H-1,2-oxazino[3,2-b](1,3)benzoxazin-10-ones” (Carter-Wallace, Inc., priority 1972, dated 1977).

The subject of this experiment is hind paw edema induced by carrageenin in the rat. Put plainly: hind paw edema induced by carrageenin in the rat (anti-inflammatory activity, oral). Type of experiment: in vivo, rat (male, Sprague-Dawley). To be noted: oral intubation 1 h before carrageenin, foot volume 3 h later, ED50 = dose in which edema formation is inhibited by 25 percent or more in 50 percent of the rats vs. mean of controls. As to the method:
The procedure described below (Winters et al, Proc. Soc., Exp. Biol. Med., 111, 544, 1962) was used to establish the effectiveness of these compounds in the hind paw edema induced by carrageenin in the rat.
Male rats of the Sprague-Dawley strain (Charles River Laboratories) weighing 100 ± 20 grams were used for this study. Six animals were used for each drug dose. The drug was suspended in 1 percent aqueous solution of gum acacia, and each rat received 10 ml/kg of the appropriate concentration of drug suspension by oral intubation; controls were given a similar volume of the vehicle. One hour later, edema in the right hind paw was induced by the subplantar injection of 0.05 ml. of 1 percent calcium carrageenin dissolved in 0.15N sodium chloride. The volume of the foot was determined immediately and again 3 hours later. The difference was recorded as edema volume. Foot volume was measured by immersion of the foot in water at the level of the lateral malleolus, and determining the volume of water displaced by the foot. The ED50 may be defined as the dose in which edema formation is inhibited by 25 percent or more in 50 percent of the rats when compared to the mean value of the controls.
As usually defined, the ED50 is the dose that gives a 50% effect, or the effect in half of the subjects. In the case of `O=C1c2cc(Cl)ccc2OC2CCCON12` (stereo not drawn) [Example 1, 8-chloro-2,3,4,4a-tetrahydro-10H-1,2-oxazino (3,2-b)(1,3)benzoxazin-10-one], it took a dose of 100 ± 27 mg/kg to reach the 50% effect level (ED50).
`O=C1c2ccccc2OC2CCCON12` (stereo not drawn) [Example 2, 2,3,4,4a-tetrahydro-10H-1,2-oxazino(3,2-b) (1,3)benzoxazin-10-one]: the ED50 was 65 ± 22 mg/kg.
In the case of `Cc1ccc2c(c1)C(=O)N1OCCCC1O2` (stereo not drawn) [Example 3, 8-methyl-2,3,4,4a-tetrahydro-10H-1,2oxazino (3,2-b)(1,3)benzoxazine-10-one], the ED50 is more than 300 mg/kg.
For `CC1CCC2Oc3ccc(Cl)cc3C(=O)N2O1` (stereo not drawn) [Example 4, 8-chloro-2-methyl-2,3,4,4a-tetrahydro-10H-1,2-oxazino(3,2-b)(1,3)benzoxazin-10-one], it took a dose of 270 ± 185 mg/kg to reach the 50% effect level (ED50).
The compound `CC1CON2C(=O)c3cc(Cl)ccc3OC2C1` (stereo not drawn) [Example 5, 8-chloro-3-methyl-2,3,4,4a-tetrahydro-10H-1,2-oxazino(3,2-b)(1,3)benzoxazin-10-one] showed a 50% effective dose (ED50) of 160 ± 73 mg/kg.
The same measure for `CC1CCON2C(=O)c3cc(Cl)ccc3OC12` (stereo not drawn) [Example 6, 8-chloro-4-methyl-2,3,4,4a-tetrahydro-10H-1,2-oxazino(3,2-b)(1,3)benzoxazin-10-one]: 195 ± 96 mg/kg.
